What was measured:
U266 cells [1] = assay: Cytotoxic effect of vincristine with or without curcumin (MTT); type: cell-based, human; conditions: U266, curcumin 10 μM alone, 24 h
Method: The antiproliferative effects of curcumin against different multiple myeloma cell lines were determined by the MTT dye uptake method as described earlier (Manna et al., 1998). Briefly, cells (5000/well) were incubated in triplicate in a 96-well plate in the presence or absence of indicated test samples in a final volume of 0.1 ml for 24 h at 37° C. Thereafter, 0.025 ml of MTT solution (5 mg/ml in PBS) was added to each well. After a 2 h incubation at 37 ° C., 0.1 ml of extraction buffer (20% SDS, 50% dimethylformamide) was added. Incubation was continued for overnight at 37 ° C., and then the OD at 590 nm was measured using a 96-well multiscanner autoreader (Dynatech MR 5000), with extraction buffer as blank. Percent cell viability=(OD of the experiment samples/OD of the control)×100.

IκB kinase = molecular target: T1, IκB kinase (Homo sapiens, UniProt O14920+O15111); assay: IκB kinase assay on IKK immunoprecipitated from curcumin-treated U266 cells; type: cell-based; conditions: curcumin 50 μM, time course, GST-IκBα substrate
T1 construct: 200 μg cytoplasmic extracts were immunoprecipitated with 1 μg of anti-IKKa and IKKb antibodies each; endogenous in cells; host or cells: U266 human multiple myeloma cells (cytoplasmic extract, immunoprecipitate on protein A/G-Sepharose)
T1 sequence (O15111 whole entry): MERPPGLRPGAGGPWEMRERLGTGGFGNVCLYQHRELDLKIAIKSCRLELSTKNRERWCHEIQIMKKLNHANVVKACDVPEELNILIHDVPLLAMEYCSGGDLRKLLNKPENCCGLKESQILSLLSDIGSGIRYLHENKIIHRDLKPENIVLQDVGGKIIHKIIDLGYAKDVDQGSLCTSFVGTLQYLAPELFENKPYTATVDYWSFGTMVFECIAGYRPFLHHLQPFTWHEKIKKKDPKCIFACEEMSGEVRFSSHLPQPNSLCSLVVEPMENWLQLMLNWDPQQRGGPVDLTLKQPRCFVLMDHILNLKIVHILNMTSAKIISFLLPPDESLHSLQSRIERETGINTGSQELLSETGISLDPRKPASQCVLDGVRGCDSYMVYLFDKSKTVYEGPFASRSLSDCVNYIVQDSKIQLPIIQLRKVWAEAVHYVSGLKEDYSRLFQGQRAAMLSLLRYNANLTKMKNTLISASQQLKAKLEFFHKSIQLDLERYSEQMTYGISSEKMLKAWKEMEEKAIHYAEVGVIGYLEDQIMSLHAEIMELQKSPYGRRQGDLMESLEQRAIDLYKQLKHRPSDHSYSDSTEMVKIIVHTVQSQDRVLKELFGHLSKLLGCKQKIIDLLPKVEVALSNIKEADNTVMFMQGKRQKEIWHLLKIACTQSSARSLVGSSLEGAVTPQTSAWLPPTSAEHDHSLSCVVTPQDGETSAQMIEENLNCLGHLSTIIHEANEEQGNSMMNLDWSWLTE
T1 sequence (O14920 whole entry): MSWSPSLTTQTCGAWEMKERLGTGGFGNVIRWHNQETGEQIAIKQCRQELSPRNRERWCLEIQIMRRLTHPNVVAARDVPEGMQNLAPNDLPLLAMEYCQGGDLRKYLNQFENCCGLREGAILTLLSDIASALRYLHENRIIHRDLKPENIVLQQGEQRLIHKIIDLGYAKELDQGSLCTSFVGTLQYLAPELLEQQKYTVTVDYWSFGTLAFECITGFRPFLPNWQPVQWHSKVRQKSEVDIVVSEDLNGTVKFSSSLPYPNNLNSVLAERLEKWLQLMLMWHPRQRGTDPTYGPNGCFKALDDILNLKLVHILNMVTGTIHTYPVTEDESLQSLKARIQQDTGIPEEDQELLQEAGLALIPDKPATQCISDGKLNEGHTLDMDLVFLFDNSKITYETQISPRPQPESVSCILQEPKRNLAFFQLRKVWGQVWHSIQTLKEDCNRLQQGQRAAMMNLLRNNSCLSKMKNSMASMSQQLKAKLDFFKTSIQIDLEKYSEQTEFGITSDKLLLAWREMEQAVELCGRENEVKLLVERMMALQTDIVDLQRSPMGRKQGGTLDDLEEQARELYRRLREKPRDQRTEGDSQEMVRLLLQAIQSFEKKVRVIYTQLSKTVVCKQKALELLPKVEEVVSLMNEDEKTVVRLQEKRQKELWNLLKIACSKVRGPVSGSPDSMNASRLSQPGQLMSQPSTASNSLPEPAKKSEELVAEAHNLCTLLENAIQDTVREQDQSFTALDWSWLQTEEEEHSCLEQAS
T1 sequence (Q9Y6K9 whole entry partner): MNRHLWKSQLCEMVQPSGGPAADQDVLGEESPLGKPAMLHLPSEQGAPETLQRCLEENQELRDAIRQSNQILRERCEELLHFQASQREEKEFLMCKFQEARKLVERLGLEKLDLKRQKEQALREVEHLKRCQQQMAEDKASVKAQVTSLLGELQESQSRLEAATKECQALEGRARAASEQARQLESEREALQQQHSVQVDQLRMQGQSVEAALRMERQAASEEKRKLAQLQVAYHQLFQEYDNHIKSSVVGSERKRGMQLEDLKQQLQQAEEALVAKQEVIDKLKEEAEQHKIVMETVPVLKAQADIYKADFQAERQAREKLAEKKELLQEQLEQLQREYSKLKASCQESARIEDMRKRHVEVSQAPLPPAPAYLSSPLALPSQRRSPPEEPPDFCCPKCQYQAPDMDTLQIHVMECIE
Method: Five million U266 cells/2.5 ml were treated with curcumin (50 μM) for the indicated times and cytoplasmic extracts were prepared. FIG. 3A: Level of phosphorylated IκBα determined by Western blotting. FIG. 3B: Immunoprecipitated IκB kinase and kinase assay of IκB kinase activity (upper panel) or Western blotting for the analysis of total IKKα and IKKβ proteins in cytoplasmic extracts (lower panel). FIG. 3C: IκB kinase was immunoprecipitated and kinase assay was performed in the absence or presence of the indicated concentrations of curcumin (upper panel). Lower panel indicates the amount of GST-IκBα protein stained with Coomassie Blue in each well in the same dried gel.
The IkB kinase assay was performed with a modified method as described earlier (Manna et al., 2000). Briefly, 200 μg cytoplasmic extracts were immunoprecipitated with 1 μg of anti-IKKa and IKKb antibodies each, and the immune complexes so formed were precipitated with 0.01 ml of protein A/G-Sepharose beads for 2 hour. The beads were washed first with lysis buffer and then with kinase assay buffer (50 mM HEPES pH 7.4, 20 mM MgCl2, and 2 mM DTT). The immune complex was then assayed for kinase activity using kinase assay buffer containing […] [g-P^32]ATP, 10 μM unlabeled ATP, and 2 μg/sample glutathione S-transferase-IkBa (1–54). […] Radioactive bands of the dried gel were visualized and quantitated by PhosphorImager.

Bcl-2 = assay: Western blot for NF-κB-regulated gene product Bcl-2 in U266 cells; type: cell-based, human; conditions: curcumin 50 μM
Method: Sixty micrograms of cytoplasmic extracts were resolved on 10% SDS-PAGE gel, electrotransferred on a nitrocellulose membrane, and probed for the following: IκBα (FIG. 4A); Bcl-2 (FIG. 4B); Bcl-xL (FIG. 4C) and cyclin D1 (FIG. 4D). The same blots were stripped and reprobed with anti-β-actin antibody to show equal protein loading (lower panel in each figure). FIG. 4E: […] U266, MM.1 or RPMI 8226 cells (1×10^7) were treated with curcumin ([…]) in 5 ml of medium for the indicated times. Supernatants were harvested and concentrated approximately 20×, and IL-6 was quantitated by an IL-6 ELISA kit. Values shown were normalized to 1 ml of un-concentrated supernatants. Thirty to fifty micrograms of cytoplasmic protein extracts prepared as described (Chaturvedi et al., 2000) were resolved on 10% SDS-PAGE gel. After electrophoresis, the proteins were electrotransferred to a nitrocellulose membrane, blocked with 5% nonfat milk, and probed with antibodies against either IkBa, phospho-IkBa, Bcl-2, Bcl-xL, or cyclin D1 (1:3000) for 1 h. Thereafter, the blot was washed, exposed to HRP-conjugated secondary antibodies for 1 h, and finally detected by chemiluminescence (ECL, Amersham Pharmacia Biotech., Arlington Heights, Ill.).

U266 cells [2] = assay: Flow cytometric cell cycle analysis (propidium iodide); type: cell-based, human; conditions: U266, 10 μM curcumin, 24 h
Method: U266 cells (2×10^6 cells/ml) were incubated in the absence or presence of curcumin (10 μM) for the indicated times. The cells were then washed, fixed, stained with propidium iodide, and analyzed for DNA content by flow cytometry. […] After incubation for overnight at −20° C., cells were washed with PBS prior to staining with propidium iodide (PI), and then suspended in staining buffer (PI, […]; Tween-20, 0.5%; RNase, 0.1% in PBS). The cells were analyzed using a FACS Vantage flow cytometer that uses CellQuest acquisition and analysis programs (Becton Dickinson, San Jose, Calif.).

U266 cells [3] = assay: Proliferation by thymidine incorporation; type: cell-based, human; conditions: U266, 24 h, different concentrations
Method: FIG. 6A: U266 cells (5000 cells/0.1 ml) were incubated with different concentrations of curcumin for 24 hours, and cell proliferation assay was performed as described. Results are shown as mean (±s.d.) of percent [^3H}-thymidine incorporation of triplicate cultures compared to untreated control. FIG. 6B: U266 cells (5000 cells/0.1 ml) were incubated with different concentrations of curcumin for 24 hours, and cell viability was determined by MTT method. The results are shown as the mean (±s.d.) percent viability from triplicate cultures. The antiproliferative effects of curcumin were also monitored by the thymidine incorporation method. Five thousand cells in […] medium were cultured in triplicate in 96-well plates in the presence or absence of curcumin for 24 h. Six hours before the completion of experiment, the cells were pulsed with […] ^3H-thymidine, and the uptake of ^3H-thymidine was monitored using a Matrix-9600 b-counter (Packard Instruments, Downers Grove, Ill.).

PARP = assay: Western blot for PARP cleavage (apoptosis); type: cell-based, human; conditions: U266, curcumin 50 μM, time course
Method: The cells were washed and total proteins were extracted by lysing the cells. Sixty microgram of extracts were resolved on 10% SDS-PAGE gel, electrotransferred to a nitrocellulose membrane, and probed with anti-procaspase-9 (FIG. 6C), anti-procaspase-7 (FIG. 6D), anti-PARP (FIG. 6E, upper panel) and anti-cleaved PARP (FIG. 6E, lower penal). […] Lysates were then spun at 14000 rpm for 10 min to remove insoluble material, resolved on 7.5% gel and probed with PARP antibodies. PARP was cleaved from the 116-kDa intact protein into 85-kDa and 40-kDa peptide products. To detect cleavage products of procaspase 7 and procaspase 9, whole cell extracts were resolved on 10% gel and probed with appropriate antibodies.

IκB kinase activity of IKK immunoprecipitated from treated cells (IκB kinase): decreased in kinase activity
Compound: COc1cc(/C=C/C(=O)CC(=O)/C=C/c2ccc(O)c(OC)c2)ccc1O [curcumin, diferuloylmethane]
cells killed (U266 cells [1]): approximately 35%
time to lowest level (complete decline) of Bcl-2 (Bcl-2): ≤ 8 h
percentage of cells in the S phase (U266 cells [2]; from 22% without treatment): 9%
percentage of cells in the G1 phase (U266 cells [2]; from 52% without treatment): 70%
thymidine incorporation (U266 cells [3]): suppressed thymidine incorporation within 24 h in a dose-dependent manner
PARP cleavage (PARP): cleavage of a 118-kDa PARP protein into an 89-kDa fragment
